Source: PMC7026418, “The kinase polypharmacology landscape of clinical PARP inhibitors” (Scientific Reports, 2020)
Read-outs that look alike come from different tables or passages of the source.

How the values were obtained:
Assay in all cases: biochemical
Set-up in all cases: DiscoveRx KINOMEscan active site-directed competition binding; percent of control kinase bound to immobilised ligand
CHEK1 = biological target: T1, CHEK1 (Homo sapiens, UniProt O14757)
T1 sequence (O14757 1-476): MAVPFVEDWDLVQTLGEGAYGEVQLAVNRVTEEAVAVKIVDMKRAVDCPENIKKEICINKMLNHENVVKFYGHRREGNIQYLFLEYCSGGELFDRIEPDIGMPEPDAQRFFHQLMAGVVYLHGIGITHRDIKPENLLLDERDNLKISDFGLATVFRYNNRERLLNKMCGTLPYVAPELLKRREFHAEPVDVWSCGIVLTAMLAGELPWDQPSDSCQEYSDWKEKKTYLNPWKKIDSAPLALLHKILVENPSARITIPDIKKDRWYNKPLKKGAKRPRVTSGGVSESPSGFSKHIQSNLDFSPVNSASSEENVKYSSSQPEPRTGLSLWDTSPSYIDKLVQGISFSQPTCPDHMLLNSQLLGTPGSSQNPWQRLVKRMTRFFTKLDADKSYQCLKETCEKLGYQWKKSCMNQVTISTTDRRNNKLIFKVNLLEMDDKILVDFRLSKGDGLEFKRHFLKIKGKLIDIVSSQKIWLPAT

[1] = biological target: T2, JAK2(JH1domain-catalytic) (Homo sapiens, UniProt O60674)
T2 construct: JH1domain-catalytic
T2 sequence (O60674 whole entry): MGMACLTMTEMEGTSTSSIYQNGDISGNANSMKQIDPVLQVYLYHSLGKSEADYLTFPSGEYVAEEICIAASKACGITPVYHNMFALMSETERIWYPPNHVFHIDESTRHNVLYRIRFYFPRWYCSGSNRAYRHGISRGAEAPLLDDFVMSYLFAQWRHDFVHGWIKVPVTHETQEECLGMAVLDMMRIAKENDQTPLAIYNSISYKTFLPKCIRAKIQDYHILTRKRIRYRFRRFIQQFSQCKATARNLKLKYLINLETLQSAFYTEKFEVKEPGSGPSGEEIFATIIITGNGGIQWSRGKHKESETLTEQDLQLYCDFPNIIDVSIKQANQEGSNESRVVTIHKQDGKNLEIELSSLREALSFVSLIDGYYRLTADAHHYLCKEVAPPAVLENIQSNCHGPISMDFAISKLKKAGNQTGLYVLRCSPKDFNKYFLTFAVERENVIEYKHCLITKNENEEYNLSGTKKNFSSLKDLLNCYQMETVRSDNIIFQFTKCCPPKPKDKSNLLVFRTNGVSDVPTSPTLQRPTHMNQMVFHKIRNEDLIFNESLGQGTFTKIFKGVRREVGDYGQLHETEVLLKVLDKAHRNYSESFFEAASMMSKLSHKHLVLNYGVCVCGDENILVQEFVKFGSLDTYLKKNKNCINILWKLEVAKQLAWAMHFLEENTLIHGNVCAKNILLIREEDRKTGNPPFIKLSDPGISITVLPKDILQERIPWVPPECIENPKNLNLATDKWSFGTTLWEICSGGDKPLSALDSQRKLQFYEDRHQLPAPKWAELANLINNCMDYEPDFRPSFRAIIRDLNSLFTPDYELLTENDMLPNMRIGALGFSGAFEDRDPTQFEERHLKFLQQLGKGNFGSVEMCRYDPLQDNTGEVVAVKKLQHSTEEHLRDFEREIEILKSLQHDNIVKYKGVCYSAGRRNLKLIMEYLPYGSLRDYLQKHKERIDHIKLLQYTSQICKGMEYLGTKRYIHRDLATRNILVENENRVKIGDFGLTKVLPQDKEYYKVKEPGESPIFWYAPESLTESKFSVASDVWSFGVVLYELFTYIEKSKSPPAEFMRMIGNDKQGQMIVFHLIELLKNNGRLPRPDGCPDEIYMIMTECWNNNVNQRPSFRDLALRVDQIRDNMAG

EGFR(L861Q) = EGFR(L861Q) (Homo sapiens, UniProt P00533, L861Q)
Sequence of EGFR(L861Q) (P00533 whole entry L861Q): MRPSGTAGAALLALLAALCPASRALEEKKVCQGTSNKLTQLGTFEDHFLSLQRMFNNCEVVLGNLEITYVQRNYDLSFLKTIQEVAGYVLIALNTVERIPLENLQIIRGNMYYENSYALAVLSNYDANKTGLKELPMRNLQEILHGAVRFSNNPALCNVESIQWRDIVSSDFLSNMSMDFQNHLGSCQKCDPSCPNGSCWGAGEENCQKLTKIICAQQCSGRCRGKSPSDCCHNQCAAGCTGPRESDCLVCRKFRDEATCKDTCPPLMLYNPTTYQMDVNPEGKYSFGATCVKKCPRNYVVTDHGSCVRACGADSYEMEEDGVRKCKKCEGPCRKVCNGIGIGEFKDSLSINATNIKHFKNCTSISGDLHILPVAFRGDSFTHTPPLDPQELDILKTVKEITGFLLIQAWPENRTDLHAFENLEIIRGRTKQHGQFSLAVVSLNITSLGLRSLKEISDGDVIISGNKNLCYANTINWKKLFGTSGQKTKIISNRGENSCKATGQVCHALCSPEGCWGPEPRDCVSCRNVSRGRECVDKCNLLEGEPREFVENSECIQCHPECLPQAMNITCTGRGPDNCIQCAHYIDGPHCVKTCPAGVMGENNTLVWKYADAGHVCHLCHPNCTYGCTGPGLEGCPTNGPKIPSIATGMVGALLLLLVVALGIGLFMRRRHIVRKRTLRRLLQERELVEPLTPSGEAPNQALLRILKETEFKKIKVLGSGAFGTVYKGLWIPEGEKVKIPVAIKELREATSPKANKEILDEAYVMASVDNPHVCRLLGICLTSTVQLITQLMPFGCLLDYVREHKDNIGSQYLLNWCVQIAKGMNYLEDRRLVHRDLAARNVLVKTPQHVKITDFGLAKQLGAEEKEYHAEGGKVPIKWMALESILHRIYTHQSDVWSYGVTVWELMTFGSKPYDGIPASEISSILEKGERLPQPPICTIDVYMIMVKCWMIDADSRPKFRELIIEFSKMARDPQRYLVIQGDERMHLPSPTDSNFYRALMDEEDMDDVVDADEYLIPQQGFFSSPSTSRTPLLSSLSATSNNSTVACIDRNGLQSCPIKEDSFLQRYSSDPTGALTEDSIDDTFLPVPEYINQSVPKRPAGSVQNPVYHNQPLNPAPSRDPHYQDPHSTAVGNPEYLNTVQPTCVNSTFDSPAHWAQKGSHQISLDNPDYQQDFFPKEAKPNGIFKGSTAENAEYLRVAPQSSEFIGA

CAMK4 = biological target: T3, CAMK4 (Homo sapiens, UniProt Q16566)
T3 sequence (Q16566 1-473): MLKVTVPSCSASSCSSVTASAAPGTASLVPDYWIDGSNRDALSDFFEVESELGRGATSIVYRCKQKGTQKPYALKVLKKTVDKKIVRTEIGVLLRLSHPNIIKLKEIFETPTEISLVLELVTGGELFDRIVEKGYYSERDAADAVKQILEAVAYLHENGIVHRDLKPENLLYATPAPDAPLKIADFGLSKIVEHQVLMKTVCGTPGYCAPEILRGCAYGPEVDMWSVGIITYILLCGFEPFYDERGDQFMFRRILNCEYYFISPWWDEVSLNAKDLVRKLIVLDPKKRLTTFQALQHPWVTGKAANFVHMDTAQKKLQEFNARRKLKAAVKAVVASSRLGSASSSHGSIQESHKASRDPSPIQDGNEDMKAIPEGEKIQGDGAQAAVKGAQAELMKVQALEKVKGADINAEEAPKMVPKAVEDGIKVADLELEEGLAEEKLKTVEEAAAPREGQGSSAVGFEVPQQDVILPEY

GRK4 = GRK4 (Homo sapiens, UniProt P32298)
Sequence of GRK4 (P32298 whole entry): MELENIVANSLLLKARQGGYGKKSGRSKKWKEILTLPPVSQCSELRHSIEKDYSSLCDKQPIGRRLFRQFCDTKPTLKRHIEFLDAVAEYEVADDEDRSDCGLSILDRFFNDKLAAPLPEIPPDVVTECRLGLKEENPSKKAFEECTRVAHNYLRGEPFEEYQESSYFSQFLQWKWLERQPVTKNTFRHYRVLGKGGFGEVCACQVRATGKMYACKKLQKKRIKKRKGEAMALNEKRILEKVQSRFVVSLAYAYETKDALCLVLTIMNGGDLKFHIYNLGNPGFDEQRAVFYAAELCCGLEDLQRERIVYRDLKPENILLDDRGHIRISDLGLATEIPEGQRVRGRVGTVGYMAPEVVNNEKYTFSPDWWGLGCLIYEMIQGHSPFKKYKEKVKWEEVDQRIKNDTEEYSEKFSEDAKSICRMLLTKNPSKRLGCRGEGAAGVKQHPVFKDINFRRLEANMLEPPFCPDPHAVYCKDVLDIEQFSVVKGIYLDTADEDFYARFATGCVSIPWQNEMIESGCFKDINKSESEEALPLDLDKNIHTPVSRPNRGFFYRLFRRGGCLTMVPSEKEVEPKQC

EIF2AK1 = EIF2AK1 (Homo sapiens, UniProt Q9BQI3)
LRRK2 = LRRK2 (Homo sapiens, UniProt Q5S007)
EPHA7 = EPHA7 (Homo sapiens, UniProt Q15375)
MLK1 = biological target: T4, MLK1 (Homo sapiens, UniProt P80192)
T4 construct: gene MAP3K9
T4 sequence (P80192 whole entry): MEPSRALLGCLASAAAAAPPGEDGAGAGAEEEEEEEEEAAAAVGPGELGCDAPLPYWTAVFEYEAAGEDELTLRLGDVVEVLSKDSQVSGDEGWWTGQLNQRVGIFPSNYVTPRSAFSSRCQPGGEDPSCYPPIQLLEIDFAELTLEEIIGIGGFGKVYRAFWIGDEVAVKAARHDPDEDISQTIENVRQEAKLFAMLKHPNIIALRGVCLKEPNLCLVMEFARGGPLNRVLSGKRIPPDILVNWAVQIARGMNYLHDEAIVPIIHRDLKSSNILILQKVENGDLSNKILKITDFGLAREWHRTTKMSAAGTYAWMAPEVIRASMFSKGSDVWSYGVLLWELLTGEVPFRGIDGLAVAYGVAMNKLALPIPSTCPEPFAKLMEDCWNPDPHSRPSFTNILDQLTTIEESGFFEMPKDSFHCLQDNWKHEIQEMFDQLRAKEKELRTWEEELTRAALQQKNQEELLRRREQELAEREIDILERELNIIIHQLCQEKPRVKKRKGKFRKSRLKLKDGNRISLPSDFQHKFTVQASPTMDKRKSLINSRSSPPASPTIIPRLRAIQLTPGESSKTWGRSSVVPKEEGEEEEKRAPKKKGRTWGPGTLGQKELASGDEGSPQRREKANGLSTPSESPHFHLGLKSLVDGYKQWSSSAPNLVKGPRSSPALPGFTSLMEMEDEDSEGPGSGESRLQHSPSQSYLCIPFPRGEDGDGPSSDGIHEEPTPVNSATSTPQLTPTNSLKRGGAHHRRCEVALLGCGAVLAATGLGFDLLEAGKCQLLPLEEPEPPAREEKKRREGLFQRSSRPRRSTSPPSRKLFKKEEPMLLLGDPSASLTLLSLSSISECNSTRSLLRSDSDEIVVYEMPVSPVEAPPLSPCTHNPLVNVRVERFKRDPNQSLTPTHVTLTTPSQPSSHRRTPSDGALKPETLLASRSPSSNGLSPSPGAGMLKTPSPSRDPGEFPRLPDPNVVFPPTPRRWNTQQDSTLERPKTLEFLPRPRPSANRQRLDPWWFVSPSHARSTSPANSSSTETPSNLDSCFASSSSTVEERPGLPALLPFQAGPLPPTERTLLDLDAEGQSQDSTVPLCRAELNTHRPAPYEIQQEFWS

FLT3(ITD) = biological target: T5, FLT3(ITD) (Homo sapiens, UniProt P36888, ITD)
T5 sequence (P36888 564-993): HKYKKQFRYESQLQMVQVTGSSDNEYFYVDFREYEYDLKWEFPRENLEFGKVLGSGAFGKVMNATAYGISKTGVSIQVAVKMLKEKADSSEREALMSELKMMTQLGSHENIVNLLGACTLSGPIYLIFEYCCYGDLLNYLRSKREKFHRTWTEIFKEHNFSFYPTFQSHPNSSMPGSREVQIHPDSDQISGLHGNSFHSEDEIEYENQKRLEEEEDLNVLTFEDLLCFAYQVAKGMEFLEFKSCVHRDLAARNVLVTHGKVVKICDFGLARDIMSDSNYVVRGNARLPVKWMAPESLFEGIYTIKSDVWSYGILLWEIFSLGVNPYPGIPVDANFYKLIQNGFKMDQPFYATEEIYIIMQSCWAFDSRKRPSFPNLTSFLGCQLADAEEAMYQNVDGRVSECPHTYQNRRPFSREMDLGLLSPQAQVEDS

TRKB = biological target: T6, TRKB (Homo sapiens, UniProt Q16620)
T6 construct: gene NTRK2
T6 sequence (Q16620 whole entry): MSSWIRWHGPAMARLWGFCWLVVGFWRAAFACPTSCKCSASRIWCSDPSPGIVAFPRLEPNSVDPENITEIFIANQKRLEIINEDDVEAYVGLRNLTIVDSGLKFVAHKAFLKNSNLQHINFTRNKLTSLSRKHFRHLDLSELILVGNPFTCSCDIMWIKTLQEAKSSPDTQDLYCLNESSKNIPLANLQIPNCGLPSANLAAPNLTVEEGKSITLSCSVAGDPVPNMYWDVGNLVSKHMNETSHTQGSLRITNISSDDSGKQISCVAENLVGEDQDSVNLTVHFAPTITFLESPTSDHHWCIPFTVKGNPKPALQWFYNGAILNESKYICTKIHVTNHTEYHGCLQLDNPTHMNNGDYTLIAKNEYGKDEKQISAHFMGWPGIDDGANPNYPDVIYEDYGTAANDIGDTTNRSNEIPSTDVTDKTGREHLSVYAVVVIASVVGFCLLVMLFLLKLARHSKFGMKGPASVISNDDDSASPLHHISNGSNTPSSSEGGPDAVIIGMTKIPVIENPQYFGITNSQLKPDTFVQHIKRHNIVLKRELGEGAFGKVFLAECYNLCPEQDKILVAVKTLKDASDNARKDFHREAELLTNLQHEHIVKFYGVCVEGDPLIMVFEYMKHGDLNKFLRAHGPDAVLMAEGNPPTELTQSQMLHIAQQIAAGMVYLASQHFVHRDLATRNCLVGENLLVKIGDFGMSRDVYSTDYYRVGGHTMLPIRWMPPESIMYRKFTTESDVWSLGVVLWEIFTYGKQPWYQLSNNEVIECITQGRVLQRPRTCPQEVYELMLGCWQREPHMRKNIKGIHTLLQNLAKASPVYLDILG

[2] = read-out: Niraparib (MK-4827) / %Ctrl @ 10000nM
[3] = read-out: Olaparib / %Ctrl @ 10000nM
[4] = read-out: Rucaparib / %Ctrl @ 10000nM, binding competition, % of control
[5] = read-out: Talazoparib (BMN 673) / %Ctrl @ 10000nM

Question: Which percent of control binding at 10 µM (CHEK1; [2]) does the source give for `NC(=O)c1cccc2cn(-c3ccc([C@@H]4CCCNC4)cc3)nc12` [Niraparib] here?
Answer: 72%

Question: What about the percent of control binding at 10 µM [1, 2] of the same compound?
Answer: 82%

Question: And the percent of control binding at 10 µM (EGFR(L861Q); [2])?
Answer: 88%

Question: And the percent of control binding at 10 µM (CAMK4; [2])?
Answer: 100%

Question: What about the percent of control binding at 10 µM (GRK4; [2]) of the same compound?
Answer: 62%

Question: What about the percent of control binding at 10 µM (EIF2AK1; [2]) of the same compound?
Answer: 93%

Question: And the percent of control binding at 10 µM (LRRK2; [2])?
Answer: 96%

Question: And the percent of control binding at 10 µM (EPHA7; [2])?
Answer: 89%

Question: What about the percent of control binding at 10 µM (MLK1; [2]) of the same compound?
Answer: 87%

Question: And the percent of control binding at 10 µM (FLT3(ITD); [2])?
Answer: 92%

Question: What about the percent of control binding at 10 µM (TRKB; [2]) of the same compound?
Answer: 96%

Question: How did the percent of control binding at 10 µM (CHEK1; [3]) turn out when `O=C(c1cc(Cc2n[nH]c(=O)c3ccccc23)ccc1F)N1CCN(C(=O)C2CC2)CC1` [Olaparib] was run?
Answer: 79%

Question: What about the percent of control binding at 10 µM [1, 3] of the same compound?
Answer: 78%

Question: And the percent of control binding at 10 µM (EGFR(L861Q); [3])?
Answer: 91%

Question: What about the percent of control binding at 10 µM (CAMK4; [3]) of the same compound?
Answer: 93%

Question: And the percent of control binding at 10 µM (GRK4; [3])?
Answer: 91%

Question: What about the percent of control binding at 10 µM (EIF2AK1; [3]) of the same compound?
Answer: 83%

Question: And the percent of control binding at 10 µM (LRRK2; [3])?
Answer: 100%

Question: What about the percent of control binding at 10 µM (EPHA7; [3]) of the same compound?
Answer: 100%

Question: What about the percent of control binding at 10 µM (MLK1; [3]) of the same compound?
Answer: 100%

Question: And the percent of control binding at 10 µM (FLT3(ITD); [3])?
Answer: 100%

Question: What about the percent of control binding at 10 µM (TRKB; [3]) of the same compound?
Answer: 76%

Question: What does the source list for `CNCc1ccc(-c2[nH]c3cc(F)cc4c3c2CCNC4=O)cc1` [Rucaparib]?
Answer: percent of control binding at 10 µM (CHEK1; [4]): 100%; percent of control binding at 10 µM [1, 4]: 70%; percent of control binding at 10 µM (EGFR(L861Q); [4]): 70%; percent of control binding at 10 µM (CAMK4; [4]): 94%; percent of control binding at 10 µM (GRK4; [4]): 100%; percent of control binding at 10 µM (EIF2AK1; [4]): 72%; percent of control binding at 10 µM (LRRK2; [4]): 78%; percent of control binding at 10 µM (EPHA7; [4]): 100%; percent of control binding at 10 µM (MLK1; [4]): 100%; percent of control binding at 10 µM (TRKB; [4]): 66%

Question: How did the percent of control binding at 10 µM (CHEK1; [5]) turn out when `Cn1ncnc1[C@H]1c2n[nH]c(=O)c3cc(F)cc(c23)N[C@@H]1c1ccc(F)cc1` [Talazoparib] was run?
Answer: 86%

Question: And the percent of control binding at 10 µM [1, 5]?
Answer: 93%

Question: And the percent of control binding at 10 µM (EGFR(L861Q); [5])?
Answer: 82%

Question: What about the percent of control binding at 10 µM (CAMK4; [5]) of the same compound?
Answer: 83%

Question: And the percent of control binding at 10 µM (GRK4; [5])?
Answer: 100%

Question: And the percent of control binding at 10 µM (EIF2AK1; [5])?
Answer: 100%

Question: What about the percent of control binding at 10 µM (LRRK2; [5]) of the same compound?
Answer: 100%

Question: And the percent of control binding at 10 µM (EPHA7; [5])?
Answer: 96%

Question: What about the percent of control binding at 10 µM (MLK1; [5]) of the same compound?
Answer: 77%

Question: And the percent of control binding at 10 µM (FLT3(ITD); [5])?
Answer: 100%

Question: And the percent of control binding at 10 µM (TRKB; [5])?
Answer: 100%
